System: 519858-162-T-J1-PDC complex spheroid viability
Experiment: Anticancer human tumor 519858-162-T-J1-PDC patient-derived colon adenocarcinoma cell line growth inhibition [GQUAD]
Details: for IC50: curve of first compound; for viability, T/C: stronger effect = lower value
Summary of the method: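 Tumor cells were grown as complex spheroids with HUVEC endothelial cells and mesenchymal stem cells as stroma. G-quadruplex stabilizers were combined with targeted agents over half-log dilutions from near the clinical Cmax, or from 10 microM.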
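Also: spheroids exposed to compounds for 7 days.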
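For viability, T/C in this document: 100% = DMSO vehicle control viability.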

In the case of `CC(C)n1c(=O)n(C)c2cnc3cc(F)c(-c4ccc(OCCCN5CCCCC5)nc4)cc3c21` + Cc1[nH]c2ccc(F)cc2c1-c1nc2c3cccnc3c3ncccc3c2[nH]1, the IC50 (second compound 0.0316 µM) is reported as over 10 µM, the IC50 (second compound 0.1 µM) is reported as over 10 µM and the IC50 (second compound 0.316 µM) is reported as over 10 µM. It also gave an IC50 (second compound 1 µM) of over 10 µM, an IC50 (second compound 3.16 µM) of over 10 µM and an IC50 (second compound 10 µM) of over 10 µM. It also gave a viability, T/C (second compound 0.0316 µM, first compound 0.0316 µM) of 97.7%, a viability, T/C (second compound 0.0316 µM, first compound 0.1 µM) of 124% and a viability, T/C (second compound 0.0316 µM, first compound 0.316 µM) of 114%. It also gave a viability, T/C (second compound 0.0316 µM, first compound 1 µM) of 107%, a viability, T/C (second compound 0.0316 µM, first compound 3.16 µM) of 78.2% and a viability, T/C (second compound 0.0316 µM, first compound 10 µM) of 67.9%. The viability, T/C (second compound 0.1 µM, first compound 0.0316 µM) was 77.5%, the viability, T/C (second compound 0.1 µM, first compound 0.1 µM) was 96.8% and the viability, T/C (second compound 0.1 µM, first compound 0.316 µM) was 86.6%. For the same molecule, the viability, T/C (second compound 0.1 µM, first compound 1 µM) was 91.3%, the viability, T/C (second compound 0.1 µM, first compound 3.16 µM) was 89.7% and the viability, T/C (second compound 0.1 µM, first compound 10 µM) was 121%. For the same molecule, the viability, T/C (second compound 0.316 µM, first compound 0.0316 µM) was 91.5%, the viability, T/C (second compound 0.316 µM, first compound 0.1 µM) was 94.2% and the viability, T/C (second compound 0.316 µM, first compound 0.316 µM) was 82%. The viability, T/C (second compound 0.316 µM, first compound 1 µM) was 101%, the viability, T/C (second compound 0.316 µM, first compound 3.16 µM) was 84.8% and the viability, T/C (second compound 0.316 µM, first compound 10 µM) was 80.7%. For the same molecule, the viability, T/C (second compound 1 µM, first compound 0.0316 µM) was 79.2%, the viability, T/C (second compound 1 µM, first compound 0.1 µM) was 85.5% and the viability, T/C (second compound 1 µM, first compound 0.316 µM) was 101%. It also gave a viability, T/C (second compound 1 µM, first compound 1 µM) of 119%, a viability, T/C (second compound 1 µM, first compound 3.16 µM) of 96.4% and a viability, T/C (second compound 1 µM, first compound 10 µM) of 69.5%. For the same molecule, the viability, T/C (second compound 3.16 µM, first compound 0.0316 µM) was 85.9%, the viability, T/C (second compound 3.16 µM, first compound 0.1 µM) was 75.6% and the viability, T/C (second compound 3.16 µM, first compound 0.316 µM) was 75.9%. It also gave a viability, T/C (second compound 3.16 µM, first compound 1 µM) of 56.3%, a viability, T/C (second compound 3.16 µM, first compound 3.16 µM) of 50.5% and a viability, T/C (second compound 3.16 µM, first compound 10 µM) of 67.3%. For the same molecule, the viability, T/C (second compound 10 µM, first compound 0.0316 µM) was 65.8%, the viability, T/C (second compound 10 µM, first compound 0.1 µM) was 73.8% and the viability, T/C (second compound 10 µM, first compound 0.316 µM) was 56.8%. The viability, T/C (second compound 10 µM, first compound 1 µM) was 51.4%, the viability, T/C (second compound 10 µM, first compound 3.16 µM) was 54.9% and the viability, T/C (second compound 10 µM, first compound 10 µM) was 53%.

Source: PubChem BioAssay AID2060507 (Molecular Pharmacology Branch, DTP, NCI, 2025)
